Results reported in patent publication US6610883B1, “Compounds having selective activity for retinoid X receptors, and means for modulation of processes mediated by retinoid X receptors” (Ligand Pharmaceuticals, Inc., priority 1992, dated 2003).
Like-named read-outs stand apart in the source and are kept apart here.

How the values were obtained:
Assay type in all cases: cell-based
RARγ = target: T1, RARγ (Homo sapiens, UniProt P13631); test: Co-transfection (cis-trans) assay in CV-1 cells, RARγ; set-up: expressed in transfected cells; host or cells: CV-1 (monkey kidney); conditions: for Emax at 10 µM: CV-1, maximal response relative to all-trans-retinoic acid at 10^−5 M, read-out: Efficacy; for EC50: CV-1 cells, luciferase reporter, 36 h, read-out: Potency
T1 sequence (P13631 1-454): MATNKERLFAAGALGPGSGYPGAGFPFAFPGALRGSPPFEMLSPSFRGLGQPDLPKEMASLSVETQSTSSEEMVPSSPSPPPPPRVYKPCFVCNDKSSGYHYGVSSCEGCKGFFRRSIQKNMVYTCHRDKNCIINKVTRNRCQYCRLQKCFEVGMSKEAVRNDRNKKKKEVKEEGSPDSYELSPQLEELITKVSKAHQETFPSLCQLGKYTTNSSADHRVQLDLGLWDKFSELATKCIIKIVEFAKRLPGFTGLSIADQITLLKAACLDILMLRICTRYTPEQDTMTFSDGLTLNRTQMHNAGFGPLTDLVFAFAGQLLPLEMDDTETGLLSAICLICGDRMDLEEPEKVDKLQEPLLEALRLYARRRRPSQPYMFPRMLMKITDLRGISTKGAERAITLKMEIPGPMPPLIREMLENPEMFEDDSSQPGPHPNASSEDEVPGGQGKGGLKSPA
Excerpt: (§1) The co-transfection assay provides a mechanism to evaluate the ability of a compound to modulate the transcription response initiated by an intracellular receptor. […] Berger, et al., J. Steroid Biochem Molec.
(§2) Briefly, the co-transfection assay involves the introduction of two plasmids by transient transfection into a retinoid receptor-negative mammalian cell background. The first plasmid contains a retinoid receptor cDNA and directs constitutive expression of the encoded receptor. The second plasmid contains a cDNA that encodes for a readily quantifiable protein, e.g., firefly luciferase or chloramphenicol acetyl transferase (CAT), under control of a promoter containing a retinoid acid response element, which confers retinoid dependence on the transcription of the reporter. In this co-transfection assay, all retinoid receptors respond to all-trans-retinoic acid in a similar fashion. This assay can be used to accurately measure efficacy and potency of retinoic acid and synthetic retinoids as ligands that interact with the individual retinoid receptor subtypes.
(§3) Accordingly, synthetic retinoid compounds of the current invention were evaluated for their interaction with retinoid receptor subtypes using the co-transfection assay in which CV-1 cells were co-transfected with one of the retinoid receptor subtypes, a reporter construct, and an internal control to allow normalization of the response for transfection efficiency. The following example is illustrative.
(§4) Retinoids: All-tans-retinoic acid (RA) and 13-cis-retinoic acid (13-cis-RA) were obtained from Sigma. […] Retinoids were dissolved in dimethylsulfoxide for use in the transcriptional activation assays.
(§5) Co-transfection Assay In CV-1 Cells: A monkey kidney cell line, CV-1, was used in the cis-trans assay. Cells were transfected with two plasmids. […] The cis-vector contains an easily assayable gene product, in this case the firefly luciferase, coupled to a retinoid-responsive promoter, i.e., an RARE or RXRE. Addition of retinoic acid or an appropriate synthetic retinoid results in the formation of a retinoid-RAR or -RXR complex that activates the expression of luciferase gene, causing light to be emitted from cell extracts. The level of luciferase activity is directly proportional to the effectiveness of the retinoid-receptor complex in activating gene expression. This sensitive and reproducible co-transfection approach permits the identification of retinoids that interact with the different receptor isoforms.
(§6) Cells were cultured in DMEM supplemented with 10% charcoal resin-stripped fetal bovine serum, and experiments were conducted in 96-well plates. […] Cells were transfected for 6 h and then washed to remove the precipitate. The cells were then incubated for 36 h with or without retinoid. After the transfection, all subsequent steps were performed on a Beckman Biomek Automated Workstation. […] All determinations were performed in triplicate in two independent experiments and were normalized for transfection efficiency by using β-galactosidase as the internal control. […] Efficacy values less than 5% are not statistically different than the 0% background.

RARα = target: T2, RARα (Homo sapiens, UniProt P10276); test: Co-transfection (cis-trans) assay in CV-1 cells, RARα; set-up: expressed in transfected cells; host or cells: CV-1 (monkey kidney); conditions: for Emax at 10 µM: CV-1, maximal response relative to all-trans-retinoic acid at 10^−5 M, read-out: Efficacy; for EC50: CV-1 cells, luciferase reporter, 36 h, read-out: Potency
T2 sequence (P10276 1-462): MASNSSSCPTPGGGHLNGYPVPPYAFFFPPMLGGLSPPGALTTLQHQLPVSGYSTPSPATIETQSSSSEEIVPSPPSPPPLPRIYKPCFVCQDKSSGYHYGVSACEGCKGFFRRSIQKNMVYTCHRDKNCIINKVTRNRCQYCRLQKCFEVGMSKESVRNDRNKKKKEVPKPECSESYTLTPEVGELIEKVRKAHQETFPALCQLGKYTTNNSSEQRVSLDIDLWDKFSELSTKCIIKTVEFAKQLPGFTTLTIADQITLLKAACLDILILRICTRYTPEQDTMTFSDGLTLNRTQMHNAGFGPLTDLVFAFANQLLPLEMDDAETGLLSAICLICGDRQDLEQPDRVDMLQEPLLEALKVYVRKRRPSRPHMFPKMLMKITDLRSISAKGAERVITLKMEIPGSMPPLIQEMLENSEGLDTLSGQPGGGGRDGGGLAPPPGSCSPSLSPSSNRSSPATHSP
Excerpt: as §1, §2, §3, §4, §5, §6

RXRβ = target: T3, RXRβ (Mus musculus, UniProt P28704); test: Co-transfection (cis-trans) assay in CV-1 cells, RXRβ; conditions: for Emax at 10 µM: CV-1, maximal response relative to all-trans-retinoic acid at 10^−5 M, read-out: Efficacy
T3 construct: expressed in transfected cells; host or cells: CV-1 (monkey kidney)
T3 sequence (P28704 1-520): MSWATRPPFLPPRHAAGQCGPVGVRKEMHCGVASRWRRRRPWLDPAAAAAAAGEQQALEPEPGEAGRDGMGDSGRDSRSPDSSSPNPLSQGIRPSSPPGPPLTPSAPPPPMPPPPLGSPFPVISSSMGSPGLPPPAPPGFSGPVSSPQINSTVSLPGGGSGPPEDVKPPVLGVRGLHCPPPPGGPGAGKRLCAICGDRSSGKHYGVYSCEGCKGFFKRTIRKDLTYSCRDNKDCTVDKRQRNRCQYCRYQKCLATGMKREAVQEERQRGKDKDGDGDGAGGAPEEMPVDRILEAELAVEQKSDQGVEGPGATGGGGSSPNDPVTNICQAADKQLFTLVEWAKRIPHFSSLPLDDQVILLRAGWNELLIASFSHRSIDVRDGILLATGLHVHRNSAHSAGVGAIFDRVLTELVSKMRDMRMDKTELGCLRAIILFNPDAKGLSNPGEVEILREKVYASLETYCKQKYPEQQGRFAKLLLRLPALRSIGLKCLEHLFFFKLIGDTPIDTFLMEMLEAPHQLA
Excerpt: as §1, §2, §3, §4, §5, §6

[1] = RXRβ, CV-1 cells, luciferase reporter, 36 h, read-out: Potency

Compound | Emax at 10 µM (RARγ) | Emax at 10 µM (RARα) | EC50 (RARγ) | EC50 (RARα) | Emax at 10 µM (RXRβ; RXRβ) | EC50 (RXRβ; [1]) | EC50 (RXRβ)
C=C(c1ccc(C(=O)O)cc1)c1cc2c(cc1Br)C(C)(C)CCC2(C)C [3-Bromo-TTNEB, 4-[1-(3-bromo-5,5,8,8-tetramethyl-5,6,7,8-tetrahydro-2-naphthyl)ethenyl]benzoic acid] | 15% | 3% | – | – | – | – | 0.054 µM
Cc1cc2c(cc1C(=O)c1ccc(C(=O)Nc3ccc(O)cc3)cc1)C(C)(C)CCC2(C)C [3-Methyl-TTNCHBP, 4-[(3,5,5,8,8-pentamethyl-5,6,7,8-tetrahydro-2-naphthyl)carbonyl]-N-(4-hydroxyphenyl)benzamide] | 17% | < 2% | > 10 µM | > 10 µM | 155% | 1.1 µM | –
C=C(c1ccc(C(=O)Nc2ccc(O)cc2)cc1)c1cc2c(cc1C)C(C)(C)CCC2(C)C [3-Methyl-TTNEHBP (63), 4-[1-(3,5,5,8,8-pentamethyl-5,6,7,8-tetrahydro-2-naphthyl)ethenyl]-N-(4-hydroxyphenyl)benzamide] | 10% | < 2% | > 10 µM | > 10 µM | 121% | 0.071 µM | –
CC1=C(C=CC2CCCCC2/C=C/C(C)=C/C(=O)O)C(C)(C)CCC1 (stereo not drawn) [Compound 100, 3-methyl-5-(2-[2-(2,6,6-trimethylcyclohexen-1-yl)ethenyl]cyclohexyl)-2E,4E-pentadienoic acid] | 4% | 9% | > 10 µM | > 10 µM | 54% | 0.071 µM | –
CC1=C(/C=C/C2(C/C=C/C(C)=C/C(=O)O)CC2)C(C)(C)CCC1 [Compound 110] | 37% | 9% | 1.77 µM | > 10 µM | 73% | 0.07 µM | –

More lines, main results first:

Emax at 10 µM (RARγ) | Emax at 10 µM (RARα) | EC50 (RARγ) | EC50 (RARα) | Emax at 10 µM (RXRβ; RXRβ) | EC50 (RXRβ; [1]) | Compound | EC50 (RXRβ)
61% | < 2% | 0.037 µM | > 10 µM | 91% | 0.006 µM | CCCC(=C/C=C/C(C)=C/C(=O)O)/C=C/C1=C(C)CCCC1(C)C [Compound 74, 3-methyl-7-propyl-9-(2,6,6-trimethyl-1-cyclohexen-1-yl)-2E,4E,6Z,8E-nonatetranoic acid] | –
119% | < 2% | 0.15 µM | > 10 µM | 142% | 0.018 µM | CC1=C(/C=C/C(=C\C=C\C(C)=C\C(=O)O)C(C)C)C(C)(C)CCC1 [Compound 75, 3-methyl-7-isopropyl-9-(2,6,6-trimethyl-1-cyclohexen-1-yl)-2E,4E,6Z,8E-nonatetranoic acid] | –
44% | < 2% | 0.17 µM | > 10 µM | 99% | 0.011 µM | CC1=C(/C=C/C(=C\C=C\C(C)=C\C(=O)O)C(C)(C)C)C(C)(C)CCC1 [Compound 77, 3-methyl-7-t-butyl-9-(2,6,6-trimethyl-1-cyclohexen-1-yl)-2E,4E,6Z,8E-nonatetranoic acid] | –
28% | 7% | 0.144 µM | > 10 µM | 133% | 0.013 µM | CC(/C=C/C1(c2cc3c(cc2C)C(C)(C)CCC3(C)C)CC1)=C\C(=O)O [Compound 104, (2E,4E)-3-methyl-5-[1-(3,5,5,8,8-pentamethyl-5,6,7,8-tetrahydro-2-naphthyl)cyclopropyl]penta-2,4-dienoic acid] | –
49% | 11% | 0.283 µM | > 10 µM | 105% | 0.021 µM | CC(/C=C/C=C(\c1ccc2c(c1)C(C)(C)CCC2(C)C)C(C)C)=C\C(=O)O [Compound 123, (2E,4E,6Z)-7-(5,5,8,8-tetramethyl-5,6,7,8-tetrahydro-2-naphthyl)-3,8-dimethyl-nona-2,4,6-trienoic acid] | –
37% | 12% | 0.309 µM | > 10 µM | 154% | 0.022 µM | C/C(=C/C=C/C(C)=C/C(=O)O)c1cc2c(cc1C)C(C)(C)CCC2(C)C [Compound 128, (2E,4E,6Z)-7-(3,5,5,8,8-pentamethyl-5,6,7,8-tetrahydro-2-naphthyl)-3-methyl-octa-2,4,6-trienoic acid] | –
